From US20120022054A1, “NOVEL SUBSTITUTED ARYL DERIVATIVES, THEIR PROCESS OF PREPARATION AND THEIR THERAPEUTICAL USES AS ANTI-HIV AGENTS” (priority 2008, published 2012)
Read-outs that look alike come from different tables or passages of the source.

Tests used:
[1] = tested on: Env-deleted NL4-3 vector virus pseudotyped with the VSV g envelope; assay: microbe, parasite or virus in culture; assay type: cell-based, HIV-1; settings: Vesicular stomatitis virus, NL43, SUP-T1, 48 h, read-out: EC50 for antiviral activity (50% inhibition of luciferase activity)
[2] = tested on: NL4-3 strain of HIV-1; assay: Multiple cycle infection assay of CAp24 antigen production; assay type: cell-based; settings: Human immunodeficiency virus 1, NL43, SUP-T1, 96 h, multiple cycle infection with NL4-3 virus, SupT1, MT4 or PBMC, MOI 0.01, day 4 and day −6 post-infection, read-out: EC50 for antiviral activity (50% inhibition of CA p24 production)

Row | Compound | EC50 [1] [µM] | EC50 ([2]; threshold below 5 μM) [µM] | EC50 ([2]; threshold below 500 nM) [µM]
1 | CN(Cc1ccccc1Cl)C(=O)CCCSc1ccc(O)cc1 [Example 3, N-(2-Chlorobenzyl)-4-[(4-hydroxyphenyl)thio]-N-methylbutanamide] | < 5 | < 5 | 
2 | CN(C(=O)CCCSc1ccc(O)cc1)C(c1ccccc1)c1ccccc1 [Example 10, N-Benzhydryl-4-[(4-hydroxyphenyl)thio]-N-methylbutanamide] | < 5 | < 5 | 
3 | CN(Cc1ccccc1N1CCOCC1)C(=O)CCCSc1ccc(O)cc1 [Example 11, 4-[(4-Hydroxyphenyl)thio]-N-methyl-N-(2-morpholin-4-ylbenzyl)butanamide] | < 5 | < 5 | 
4 | COc1ccccc1CN(C)C(=O)CCCCSc1ccc(O)cc1 [Example 12, 5-[(4-Hydroxyphenyl)thio]-N-(2-methoxybenzyl)-N-methylpentanamide] | < 5 | < 5 | 
5 | CN1CCN(c2ccccc2CN(C)C(=O)CCCSc2ccc(O)cc2)CC1 [Example 13, 4-[(4-Hydroxyphenyl)thio]-N-methyl-N-[2-(4-methylpiperazin-1-yl)benzyl]-butanamide] | < 5 | < 5 | 
6 | CN(Cc1ccccc1Cl)C(=O)CCCSc1ccc(F)cc1 [Example 14, N-(2-Chlorobenzyl)-4-[(4-fluorophenyl)thio]-N-methylbutanamide] | < 5 | < 5 | 
7 | COc1ccc(Cl)cc1CN(C)C(=O)CCCSc1ccc(O)cc1 [Example 70, N-(5-Chloro-2-methoxybenzyl)-4-[(4-hydroxyphenyl)thio]-N-methylbutanamide] |  | < 5 | < 0.5
8 | COc1ccc(F)cc1CN(C)C(=O)CCCSc1ccc(O)cc1 [Example 71, N-(5-Fluoro-2-methoxybenzyl)-4-[(4-hydroxyphenyl)thio]-N-methylbutanamide] |  | < 5 | < 0.5
9 | COc1ccc(F)cc1CN(C)C(=O)CCCSc1ccc(F)cc1 [Example 84, N-(5-Fluoro-2-methoxybenzyl)-4-[(4-fluorophenyl)thio]-N-methylbutanamide] |  | < 5 | < 0.5
10 | CC(C)Oc1ccc(F)cc1CN(C)C(=O)CCCSc1ccc(F)cc1 [Example 85, N-(5-Fluoro-2-isopropoxybenzyl)-4-[(4-fluorophenyl)thio]-N-methylbutanamide] |  | < 5 | < 0.5
11 | COc1ccc(F)cc1CN(C)C(=O)CCC[S+]([O-])c1ccc(O)cc1 (stereo not shown) [Example 103, N-(5-fluoro-2-methoxybenzyl)-4-[(4-hydroxyphenyl)sulfinyl]-N-methylbutanamide] |  | < 5 | < 0.5
12 | COc1ccc([S+]([O-])CCCC(=O)N(C)Cc2cc(F)ccc2OC)cc1 (stereo not shown) [Example 104, N-(5-fluoro-2-methoxybenzyl)-4-[(4-methoxyphenyl)sulfinyl]-N-methylbutanamide] |  | < 5 | < 0.5
13 | COc1ccc(F)cc1CN(C)C(=O)CCCn1ccc2cc(F)ccc21 [Example 106, 4-(5-fluoro-1H-indol-1-yl)-N-(5-fluoro-2-methoxybenzyl)-N-methylbutanamide] |  | < 5 | < 0.5
14 | COc1ccc(F)cc1CN(C)C(=O)CCCn1ccc2cc(Cl)ccc21 [Example 107, 4-(5-chloro-1H-indol-1-yl)-N-(5-fluoro-2-methoxybenzyl)-N-methylbutanamide] |  | < 5 | < 0.5
15 | COc1ccc(F)cc1CN(C)C(=O)CCCn1ccc2cc(Br)ccc21 [Example 108, 4-(5-bromo-1H-indol-1-yl)-N-(5-fluoro-2-methoxybenzyl)-N-methylbutanamide] |  | < 5 | < 0.5
16 | COc1ccc(Cl)cc1CN(C)C(=O)CCCSc1ccc(OC(C)C)cc1 [Example 113, N-(5-chloro-2-methoxybenzyl)-4-[(4-isopropoxyphenyl)thio]-N-methylbutanamide] |  | < 5 | < 0.5
17 | COc1ccc([S+]([O-])CCCC(=O)N(C)Cc2cc(Cl)ccc2OC)cc1 (stereo not shown) [Example 116, N-(5-chloro-2-methoxybenzyl)-4-[(4-methoxyphenyl)sulfinyl]-N-methylbutanamide] |  | < 5 | < 0.5
18 | COc1ccc([S+]([O-])CCCC(=O)N(C)Cc2cc(F)ccc2OC(C)C)cc1 (stereo not shown) [Example 118, N-(5-fluoro-2-isopropoxybenzyl)-4-[(4-methoxyphenyl)sulfinyl]-N-methylbutanamide] |  | < 5 | < 0.5
19 | COc1ccc(C)cc1CN(C)C(=O)CCCn1ccc2cc(F)ccc21 [Example 120, 4-(5-fluoro-1H-indol-1-yl)-N-(2-methoxy-5-methylbenzyl)-N-methylbutanamide] |  | < 5 | < 0.5
20 | CN(C(=O)CCCn1ccc2cc(F)ccc21)c1cccc2ccccc12 [Example 123, 4-(5-fluoro-1H-indol-1-yl)-N-methyl-N-1-naphthylbutanamide] |  | < 5 | < 0.5

Row | Compound | EC50 [1] [µM] | EC50 ([2]; threshold below 5 μM) [µM] | EC50 ([2]; threshold below 500 nM) [µM]
21 | COc1ccc(C(=O)CCCC(=O)N(C)Cc2cc(Cl)ccc2OC)cc1 [Example 125, N-(5-chloro-2-methoxybenzyl)-5-(4-methoxyphenyl)-N-methyl-5-oxopentanamide] |  | < 5 | < 0.5
22 | CN(C(=O)CCCSc1ccc(F)cc1)c1nccc2ccccc12 [Example 128, 4-[(4-fluorophenyl)thio]-N-isoquinolin-1-yl-N-methylbutanamide] |  | < 5 | < 0.5
23 | CN(C(=O)CCC[S+]([O-])c1ccc(F)cc1)c1nccc2ccccc12 (stereo not shown) [Example 129, 4-[(4-fluorophenyl)sulfinyl]-N-isoquinolin-1-yl-N-methylbutanamide] |  | < 5 | < 0.5
24 | CN(C(=O)CCCSc1ccc(F)cc1)c1cccc2cccnc12 [Example 130, 4-[(4-fluorophenyl)thio]-N-methyl-N-quinolin-8-ylbutanamide] |  | < 5 | < 0.5
25 | COc1ccc(SCCCC(=O)N(C)c2nccc3ccccc23)cc1 [Example 132, N-isoquinolin-1-yl-4-[(4-methoxyphenyl)thio]-N-methylbutanamide] |  | < 5 | < 0.5
26 | COc1ccc(F)cc1CN(C)C(=O)CCCSc1ccc(Br)cc1 [Example 145, 4-[(4-Bromophenyl)thio]-N-(5-fluoro-2-methoxybenzyl)-N-methylbutanamide] |  | < 5 | < 0.5
27 | CN(Cc1ccccc1N1CCNCC1)C(=O)CCCSc1ccc(O)cc1 [Example 162, 4-[(4-Hydroxyphenyl)thio]-N-methyl-N-(2-piperazin-1-ylbenzyl)butanamide] |  | < 5 | < 0.5
28 | CN(C(=O)CCCSc1ccc(F)cc1)c1cccc2ccccc12 [Example 169, 4-[(4-Fluorophenyl)thio]-N-methyl-N-1-naphthylbutanamide] |  | < 5 | < 0.5
29 | COc1ccc(F)cc1CN(C)C(=O)CCCn1cc(-c2ccc(F)cc2)cn1 [Example 170, N-(5-Fluoro-2-methoxybenzyl)-4-[4-(4-fluorophenyl)pyrazol-1-yl]-N-methylbutanamide] |  | < 5 | < 0.5
30 | COc1ccc(F)cc1CN(C)C(=O)CCCn1cc(-c2ccc(F)cc2)c(C)n1 [Example 171, N-(5-Fluoro-2-methoxybenzyl)-4-[4-(4-fluorophenyl)-3-methylpyrazol-1-yl]-N-methylbutanamide] |  | < 5 | < 0.5
31 | COc1ccc(Cl)cc1CN(C)C(=O)CCCn1cc(-c2ccc(F)cc2)cn1 [Example 173, N-(5-Chloro-2-methoxybenzyl)-4-[4-(4-fluorophenyl)pyrazol-1-yl]-N-methylbutanamide] |  | < 5 | < 0.5
32 | COc1ccc(-c2cnn(CCCC(=O)N(C)Cc3cc(F)ccc3OC)c2)cc1 [Example 174, N-(5-Fluoro-2-methoxybenzyl)-4-[4-(4-methoxyphenyl)pyrazol-1-yl]-N-methylbutanamide] |  | < 5 | < 0.5
33 | COc1ccc(F)cc1CN(C)C(=O)CCCn1cc(-c2ccc(F)cc2C)cn1 [Example 175, N-(5-Fluoro-2-methoxybenzyl)-4-[4-(4-fluoro-2-methylphenyl)pyrazol-1-yl]-N-methylbutanamide] |  | < 5 | < 0.5
34 | COc1ccc(F)cc1CN(C)C(=O)CCCn1cc(-c2ccc(O)cc2)cn1 [Example 176, N-(5-Fluoro-2-methoxybenzyl)-4-[4-(4-hydroxyphenyl)pyrazol-1-yl]-N-methylbutanamide] |  | < 5 | < 0.5
35 | COc1ccc(F)cc1CN(C)C(=O)CCCn1cc(-c2ccc(C#N)cc2)cn1 [Example 177, N-(5-Fluoro-2-methoxybenzyl)-4-[4-(4-cyanophenyl)pyrazol-1-yl]-N-methylbutanamide] |  | < 5 | < 0.5
36 | COc1ccc(F)cc1CN(C)C(=O)CCCn1cc(-c2ccncc2)cn1 [Example 178, N-(5-Fluoro-2-methoxybenzyl)-4-(4-pyridin-4-yl-pyrazol-1-yl)-N-methylbutanamide] |  | < 5 | < 0.5
37 | COc1ccc(-c2cnc(CCCC(=O)N(C)Cc3cc(F)ccc3OC)o2)cc1 [Example 180, N-(5-Fluoro-2-methoxybenzyl)-4-[5-(4-methoxyphenyl)oxazol-2-yl]-N-methylbutanamide] |  | < 5 | < 0.5
38 | CCOC(=O)c1cc(F)ccc1[S+]([O-])CCCC(=O)N1CCc2ccc(OC)cc21 (stereo not shown) [Example 191, Ethyl 5-fluoro-2-((4-(6-methoxy-2,3-dihydro-1H-indol-1-yl)-4-oxobutyl)sulfinyl)benzoate] |  | < 5 | 
39 | CCOC(=O)c1cc(F)ccc1SCCCC(=O)N(C)c1cccc(OC)c1 [Example 195, Ethyl 5-fluoro-2-({4-[(3-methoxyphenyl)(methyl)amino]-4-oxobutyl}thio)benzoate] | < 5 |  | 
